Among the data in US9271960B2, “Tetrahydrocarbazoles as active agents for inhibiting VEGF production by translational control” (PTC Therapeutics, Inc., priority 2004, dated 2016) are EC50 values, retold here.

One assay has as its system VEGF. Nature of the assay: Hypoxia-inducible endogenous VEGF expression ELISA in HeLa cells. The class given is cell-based. The settings on record: Homo sapiens, HeLa, compounds 1-155, hypoxic conditions (1% O2), VEGF protein by ELISA, read-out: ELISA Activity. The essentials: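 HeLa cells held 24–48 h in hypoxia (1% O2) with a concentration series of compound; VEGF secreted into media quantified by ELISA against a standard curve. Parallel Cell Titer Glo viability under identical conditions gives CC50; EC50 from percent-inhibition curves.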
As for `COc1cccc(C(=O)NC2CCCc3c2[nH]c2ccc(Br)cc32)c1OC` (stereo not drawn) [Compound 39, N-(6-Bromo-2,3,4,9-tetrahydro-1H-carbazol-1-yl)-2,3-dimethoxy-benzamide], the EC50 lay within 40 to 200 nM.
Still for that read-out and setting: for `CN(C(=O)c1ccccc1)C1CCCc2c1[nH]c1ccc(Br)cc21` (stereo not drawn) [Compound 69, N-(6-Bromo-2,3,4,9-tetrahydro-1H-carbazol-1-yl)-N-methyl-benzamide] the value was 200 to 1000 nM.
Still for that read-out and setting: for `O=C(NC1CCCc2c1[nH]c1ccc(Br)cc21)C1CC1` (stereo not drawn) [Compound 147, Cyclopropanecarboxylic acid (6-bromo-2,3,4,9-tetrahydro-1H-carbazol-1-yl)-amide] the value was 40 to 200 nM.
Consider `c1ccn(C2CCCc3c2[nH]c2ccc(N4CCCC4)cc32)c1` (stereo not drawn) [Compound 106, 6-Pyrrolidin-1-yl-1-pyrrol-1-yl-2,3,4,9-tetrahydro-1H-carbazole], for which the EC50 is more than 1000 nM.
Same read-out and setting: for `Clc1ccccc1NC1CCCc2c1[nH]c1ccc(Br)cc21` (stereo not drawn) [Compound 29, (6-Bromo-2,3,4,9-tetrahydro-1H-carbazol-1-yl)-(2-chloro-phenyl)-amine] the value was 10 to 40 nM; for `N#Cc1ccc2[nH]c3c(c2c1)CCCC3n1cccc1` (stereo not drawn) [Compound 59, 8-Pyrrol-1-yl-6,7,8,9-tetrahydro-5H-carbazole-3-carbonitrile], 200 to 1000 nM; for `Brc1ccc2[nH]c3c(c2c1)CCc1cnoc1-3` [Compound 78, 7-Bromo-4,10-dihydro-5H-1-oxa-2,10-diaza-cyclopenta[a]fluorine], more than 1000 nM.
For `CC(C)(C)CCNC1CCCc2c1[nH]c1ccc(Br)cc21` (stereo not drawn) [Compound 79, (6-Bromo-2,3,4,9-tetrahydro-1H-carbazol-1-yl)-(3,3-dimethyl-butyl)-amine], the EC50 was more than 1000 nM.
As to `COc1ccc2[nH]c3c(c2c1)CCCC3N` (stereo not drawn) [Compound 95, 6-Methoxy-2,3,9-tetrahydro-1H-carbazol-1-ylamine], the EC50 is more than 1000 nM.
The same measure, in the same setting: the result for `NC1CCCc2c1[nH]c1ccc(Cl)cc21` (stereo not drawn) [Compound 96, 6-Chloro-2,3,4,9-tetrahydro-1H-carbazol-1-ylamine] reads more than 1000 nM; that for `COC(=O)c1ccc2[nH]c3c(c2c1)CCCC3n1cccc1` (stereo not drawn) [Compound 115, 8-Pyrrol-1-yl-6,7,8,9-tetrahydro-5H-carbazole-3-carboxylic acid methyl ester], more than 1000 nM.
The same measure, in the same setting: for `Clc1ccc2[nH]c3c(c2c1)CCCC3n1cccc1` (stereo not drawn) [Compound 37, 6-Chloro-1-pyrrol-1-yl-2,3,4,9-tetrahydro-1H-carbazole] the value was 40 to 200 nM.
`O=C(NC1CCCc2c1[nH]c1ccc(Br)cc21)c1ccc(C(F)(F)F)cc1` (stereo not drawn) [Compound 131, N-(6-Bromo-2,3,4,9-tetrahydro-1H-carbazol-1-yl)-4-trifluoromethyl-benzamide]: the EC50 fell in the range of 10 to 40 nM.

The same assay, now with this note: Homo sapiens, HeLa, compounds 191-239, hypoxic conditions, VEGF protein by ELISA, read-out: ELISA Activity EC50.
On to `OC(COc1ccc(C2CCCc3c2[nH]c2ccc(Cl)cc32)cc1)Cn1ccnn1` (stereo not drawn) [Compound 221], for which the EC50 was 10 to 40 nM.
The same measure, in the same setting: for `Cc1ccc(C2c3[nH]c4ccc(Br)cc4c3CCC2O)cc1` (stereo not drawn) [Compound 237] the value was 200 to 1000 nM; for `Cc1cc(C(=O)NC2CCCc3c2[nH]c2ccc(Br)cc32)no1` (stereo not drawn) [Compound 191], less than 10 nM; for `OC(COc1ccc(C2CCCCc3c2[nH]c2ccc(Cl)cc32)cc1)Cn1ccnc1` (stereo not drawn) [Compound 231], less than 10 nM.
Take `OC(COc1ccc(C2CCCCc3c2[nH]c2ccc(Cl)cc32)cc1)Cn1ccnn1` (stereo not drawn) [Compound 232]: the EC50 was 10 to 40 nM.

The same assay, now with this note: Homo sapiens, HeLa, purchased compounds 156-188, hypoxic conditions, VEGF protein by ELISA, read-out: ELISA Activity.
Regarding `O=[N+]([O-])c1ccc2[nH]c3c(c2c1)CCCC3NC1CCC(c2ccccc2)CC1` (stereo not drawn) [Compound 157], the EC50 fell in the range of 10 to 40 nM.
Take `CC(=O)NC1CCCc2c1[nH]c1ccc(C)cc21` (stereo not drawn) [Compound 178, N-(6-Methyl-2,3,4,9-tetrahydro-1H-carbazol-1-yl)-acetamide]: the EC50 was more than 1000 nM.
On to `CCNC1CCCc2c1[nH]c1ccc(C)cc21` (stereo not drawn) [Compound 185, Ethyl-(6-methyl-2,3,4,9-tetrahydro-1H-carbazol-1-yl)-amine], for which the EC50 was more than 1000 nM.

The same assay, now with this note: Homo sapiens, HeLa, purchased compounds 156-188, hypoxic conditions, VEGF protein by ELISA, read-out: ELISA EC50.
Consider `O=[N+]([O-])c1ccc2[nH]c3c(c2c1)CCCC3NC1CCC(c2ccccc2)CC1` (stereo not drawn) [Compound 157], for which the EC50 was 14.9 nM.
On the same count and under the same terms, for `CC(=O)NC1CCCc2c1[nH]c1ccc(C)cc21` (stereo not drawn) [Compound 178, N-(6-Methyl-2,3,4,9-tetrahydro-1H-carbazol-1-yl)-acetamide] the value was more than 10000 nM; for `CCNC1CCCc2c1[nH]c1ccc(C)cc21` (stereo not drawn) [Compound 185, Ethyl-(6-methyl-2,3,4,9-tetrahydro-1H-carbazol-1-yl)-amine], more than 10000 nM.
